Test results as given in the METLIN SMRT retention time set (Domingo-Almenara et al. 2019).

Assay: gradient 5% acetonitrile 3 min, to 50% in 2 min, to 85% in 15 min, held 3 min, 100 µL/min
Details: column: Zorbax Extend-C18 2.1 x 50 mm; eluents: water / acetonitrile, 0.1% formic acid
How it was run: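 Standards, all pure, were combined into mixtures of ~100 molecules and run at 100 μL/min on a Zorbax Extend-C18 column (2.1 × 50 mm, 1.8 μm) with water and acetonitrile, each containing 0.1% formic acid. A coupled quadrupole time-of-flight mass spectrometer operated in positive and negative ionization mode. Retention time values come from computationally picked adduct peaks, each inspected manually.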

SMILES	RP-LC retention time [s]
OCC(O)C1OCOC(C(O)CO)C1O (stereo not drawn)	719
Cc1nc(OCC(=O)Nc2c(C)cccc2C)c2ccccc2n1	756
COc1ccc(NC(=O)N2CCc3[nH]cnc3C2c2ccccn2)cc1OC (stereo not drawn)	568
CC(C)NC(=O)N1CCC(N2C(=O)C3(CCCC3)C2c2ccccc2)CC1 (stereo not drawn)	837
Cc1noc(C)c1CCC(=O)Nc1ccccc1NC(=O)c1ccsc1	720
Cn1c(C(=O)NCCCN2CCN(C3CCCCC3)CC2)cc2sccc21	547
COc1ccc2nc(C(=O)NCc3cccc(F)c3)cn2n1	778
O=C1CC2(CCN(S(=O)(=O)c3cc(F)ccc3F)CC2)Oc2ccccc21	929
CCOc1ccc(S(=O)(=O)N2CCCC(C(=O)NCCO)C2)cc1 (stereo not drawn)	662
O=C(NCc1ccc2c(c1)OCO2)C(=O)Nc1ccon1	655
Cn1c(-c2ccccc2)nn(CCNC(=O)c2cc3ccccc3o2)c1=O	694
Cc1ccc(C)c(NC(=O)CN2C(=O)C(C(=O)N3CCCC3)Sc3ccccc32)c1 (stereo not drawn)	969
CN(C)c1ccc2c(c1)CN(C(=O)c1ccoc1)CCO2	573
Cn1c(NC(=O)c2ccc(N3C(=O)CCC3=O)cc2)cc(=O)n(C)c1=O	565
CCn1cc(C)c(C(=O)O)c1CC(=O)N(C)c1cccc(Cl)c1	792
O=C(c1cccc(Br)c1)N1CCC(n2c(-c3ccoc3)nc3cccnc32)C1 (stereo not drawn)	775
Cc1ccccc1CNC(=O)c1ccc2c(c1)Sc1ncccc1C(=O)N2C	789
CC1=C(c2ccc(F)cc2)S(=O)(=O)N=C1N1CCCN(C(=O)C(C)(C)C)CC1	814
CCC(C)NC(=O)N1CCN(c2cc(-c3cc(F)ccc3OC)ncn2)CC1 (stereo not drawn)	636
Cc1ccc2c(Nc3ccc(Br)cc3)c(C(=O)N3CCOCC3)cnc2n1	608
CCn1ccc2cc(S(=O)(=O)N3CCC(C(=O)NCC4CCCO4)CC3)ccc21 (stereo not drawn)	771
COc1cccc(-c2noc(Cn3ccn(-c4ccc(Cl)cc4)c(=O)c3=O)n2)c1	876

SMILES	RP-LC retention time [s]
COc1ccc(-c2nc(-c3cccc(-c4ccnn4C)c3)no2)cc1F	1130
COc1cc(NC(=O)Cn2cnc3nc(N4CCCC4)ncc3c2=O)cc(OC)c1	703
CCOc1ccc2nc(NC(=O)c3ccc(N4CCCC4)nn3)sc2c1	830
CCc1cccc(NC(=O)Cn2c(N3CCOCC3)nc(CC)cc2=O)c1	791
CCc1ccc(S(=O)(=O)c2cnc(N3CCN(c4ccccn4)CC3)nc2N)cc1	680
O=C(Nc1ccc(F)cc1)C1CC(=O)N(c2n[nH]c3cccc(F)c23)C1 (stereo not drawn)	740
O=C(N[C@H]1C[C@@H]2C[C@H]1N(S(=O)(=O)c1cc(F)cc(F)c1)C2)c1cccs1	720
O=C(Nc1ccc(OCc2nnc(-c3ccc(F)cc3)o2)cc1)c1cccnc1	720
CC1CCCN(c2ccn3c(=O)n(CC(=O)N(C)c4ccccc4)nc3n2)C1 (stereo not drawn)	742
Cc1cc(NC(=O)CSc2ccc(-c3cccc([N+](=O)[O-])c3)nn2)no1	752
COC(=O)c1ccc(NC(=O)C(=O)NCC2CCN(S(C)(=O)=O)CC2)cc1	828
Cc1ccc(CNC(=O)C2CCCN(C(=O)c3[nH]c(C)c(C(=O)OC(C)C)c3C)C2)cc1 (stereo not drawn)	893
COc1ccc(-c2cn3cccnc3n2)cc1NC(=O)c1c(-c2ccccc2Cl)noc1C	770
Cn1nccc1C(=O)N1CCC(c2noc(-c3ccccc3)n2)C1 (stereo not drawn)	755
O=C(CC1CCN(C(=O)c2cc3cc(Cl)ccc3[nH]2)CC1)NCCCN1CCCC1	644
COc1ccc(Cl)c2c(=O)c3c([nH]c12)CCN(CC(=O)Nc1ccccc1F)C3	604
Cc1ccc(CNC(=O)C2CCN(C(=O)c3cc(-c4ccncc4)n[nH]3)CC2)o1	586
Cc1ccccc1Nc1c(-c2ccc(Cl)cc2)nc2cccc(C)n12	804
COc1cccc(CC(=O)N2CCC(C(=O)NCCc3csc(-c4cccs4)n3)CC2)c1	770
CN(C)C(CNC(=O)c1cc(-c2ccccc2)on1)c1cccs1 (stereo not drawn)	663
COc1cccc(CNC(=O)CN2C(=O)NC(c3ccc(Cl)cc3)C3=C2COC3=O)c1 (stereo not drawn)	764
O=C(CSc1ccc(-c2ccccn2)nn1)Nc1ccc(F)c(F)c1	789

SMILES	RP-LC retention time [s]
O=C(Nc1cccc2c1CCCC2)C1CCN(S(=O)(=O)c2ccc3[nH]c(=O)ccc3c2)CC1	808
CCOc1ccccc1NC(=O)Cn1nc2n(c1=O)CCCCC2	766
O=C(Nc1ccc(Cl)cc1)c1cc2c(cc1O)[nH]c1ccccc12	1210
Cc1cccc2nnc(N3CCN(C(=O)c4cccnc4)CC3)n12	515
Cc1ccc(NC(=O)Cn2cnc3nc(N4CCC(C(=O)NC5CC5)CC4)sc3c2=O)c(F)c1	655
Fc1cccc(-c2nnc(-c3ccccc3Cl)o2)c1	1060
CCC(=O)Nc1ccc(-n2cnc(C(=O)N3CCC4(CC3)OCCO4)c2)nc1	616
Cn1ccc2cc(S(=O)(=O)N3CCCC(C(=O)NC4CCCCCC4)C3)ccc21 (stereo not drawn)	1010
Cc1cc(OCC(=O)N[C@@H](CC(C)C)C(=O)O)c2c3c(c(=O)oc2c1)CCCC3	894
Cc1ccc2c(C(=O)O)cc(NC(=O)C3CCC3)cc2n1	574
CC(C)(C)CC(=O)N1CCCC(c2nc(CNC(=O)C3CCC3)cs2)C1 (stereo not drawn)	774
COC(=O)c1ccc2c(=O)n(-c3ccc4c(c3)OCO4)c(N3CCOCC3)nc2c1	875
CNC(=O)c1cc(-c2ccccc2Cl)n[nH]1	668
COc1ccc(-c2nnc(N3CCC(C(=O)N4CCN(c5ccccc5)CC4)CC3)o2)cc1	859
O=C(CC1CCN(C(=O)c2ccc3oc(-c4ccccc4)nc3c2)CC1)NCCN1CCOCC1	630
Cc1ccc(C(=O)Nc2ccc(OCc3nnc(-c4ccccc4)o3)cc2)s1	988
CCCN(CC1CCOC1)C(=O)Nc1cc(F)c(F)c(F)c1 (stereo not drawn)	844
Cc1nn(-c2ccccc2)c(C)c1S(=O)(=O)N1CCC(C(=O)Nc2ccc(F)cc2Cl)CC1	1000
CC(C)c1ccc(NC(=O)C2CCCN(C(=O)C3Sc4ccccc4NC3=O)C2)cc1 (stereo not drawn)	913
O=C1NC2(CCN(C(=O)NCc3ccc(F)cc3)CC2)Nc2c(Cl)cccc21	770
COc1cccc(CNC(=O)Cn2c(=O)cc(-c3nc(C(C)C)no3)c3ccccc32)c1	944
COc1ccc2c(C)c(C(=O)Nc3cc(C)ns3)oc2c1	826

SMILES	RP-LC retention time [s]
Cc1oc(C2CCN(C(=O)Cc3c(F)cccc3Cl)CC2)nc1C(=O)N1CCCC1	848
O=C(Nc1ccc(F)cc1F)C1CCN(S(=O)(=O)c2cc(C(=O)N3CCCC3)cs2)CC1	803
CCOC(=O)c1ccc(NC(=O)Cn2nc3c(Oc4ccccc4)nccn3c2=O)cc1	852
O=C(Nc1ccccc1)Oc1ccc[nH]c1=O	650
O=C(Nc1cnc(N2CCCC2)c(C(=O)O)c1)c1ccc(Cl)cc1	631
O=c1n(Cc2ccc(F)cc2)nc2ccc(S(=O)(=O)N3CCCCC3)cn12	923
COc1cccc(N2CCN(c3ccnc(SCC(=O)Nc4ccc(Cl)cc4)n3)CC2)c1	805
Cc1cccc(OCc2nc(-c3ccc(NS(C)(=O)=O)cc3)no2)c1	801
CNC(=O)c1nc(C(=O)NCc2ccc(C)cc2)cs1	739
Cc1ccc(CN2CCN(CC(=O)Nc3ccc(Cl)cc3)C(=O)C2=O)cc1	836
O=C(NCc1ccccc1)c1nc(Cn2c(=O)oc3ccccc32)no1	880
COc1ccc(C2(C(=O)NCC34CCCC=C3NC(=O)CC4)CC2)cc1 (stereo not drawn)	776
O=C(NCCn1ncccc1=O)c1cccc(C(F)(F)F)c1	646
COc1ccc(NC(=O)C2CCN(S(=O)(=O)c3ccc4c(c3)NC(=O)CO4)CC2)cc1OC	715
COc1cccc(C(=O)NC2CCN(c3ccc(C)c(C)c3)C2=O)c1 (stereo not drawn)	869
Cc1oc2c(c(C)nn2-c2ccccc2)c(=O)c1Cl	954
C[C@@H]1O[C@@H](O[C@H]2[C@H](Oc3cc(O)c(C(=O)CCc4ccc(O)cc4)c(O)c3)O[C@H](CO)[C@@H](O)[C@@H]2O)[C@H](O)[C@H](O)[C@H]1O	650
CN(C)C(=O)N1CCC(c2nc(CCOc3ccc(F)cc3)no2)C1 (stereo not drawn)	767
COc1ccc(-c2nnc(-c3ccc(C)c(S(=O)(=O)N4CCN(C)CC4)c3)o2)cc1OC	646
Cc1cc(C(=O)Nc2cccc3ccccc23)n(-c2ccccc2)n1	908
CCc1cc(-c2csc(S(=O)(=O)NCc3ccc(OC(C)C)cc3)c2)on1	1070
Cc1ccccc1C(=O)N1C[C@@H]2C[C@H]1C[C@@H]2NS(=O)(=O)c1cccs1	776
